Earlier results, collected in patent publication US20170326065A1, “METHODS AND COMPOSITION FOR TREATMENT OF CARDIOVASCULAR CONDITIONS” (Ezra Pharma LLC, priority 2016, published 2017).

CCCCC(=O)N(Cc1ccc(-c2ccccc2-c2nnn[nH]2)cc1)[C@H](C(=O)O)C(C)C [valsartan]
T1/2 alpha phase of elimination (biphasic elimination, rapid alpha phase): 1 to 2 h | T1/2 beta phase of elimination (biphasic elimination, slow beta phase, in h): 7-8 | peak plasma concentration reduced to (by 12 hours, marketed immediate release formulation): approximately 65% | absolute bioavailability (oral administration, printed range (10-35%)): about 25% | half-life (valsartan): about 6 hours | Tmax (valsartan, oral): 2 to 4 h
